In ChEMBL document CHEMBL1158882, “Yardenone A and B: new cytotoxic triterpenes from the Indian Ocean sponge Axinella cf. bidderi” (J Nat Prod, 2003):
The source made the active and inactive calls. No cut-off for these calls is given here.

Columns and labels:
Homo sapiens = species: Homo sapiens; assay: (§1) Cytotoxicity against human NSCLC-N6-L16 cells; assay type: functional, cell-based
[1] = as §1; assay type: functional, cell-based

| SMILES | Activity (Homo sapiens) | IC50 [1] [µM] |
| --- | --- | --- |
| C[C@H]1CC[C@@H]2OC(C)(C)C(=O)CC[C@@]2(C)[C@]12CC[C@@H]([C@@]1(C)CC[C@@H]3OC(C)(C)C(=O)CC[C@]31C)O2 | inactive | – |
| CC1=C(CC[C@H]2[C@]3(C)CCC(=O)C(C)(C)O[C@H]3CC[C@]2(C)O)[C@@]2(C)CCC(=O)C(C)(C)C2=C(O)C1=O [SODWANONE A] | – | 12 |
| C[C@H]1CC[C@@H]2OC(C)(C)C(=O)CC[C@@]2(C)[C@]12C[C@H](O)[C@@H]([C@@]1(C)CC[C@@H]3OC(C)(C)C(=O)CC[C@]31C)O2 [YARDENONE A] | – | > 60 |
| C[C@H]1CC[C@@H]2OC(C)(C)[C@H](O)CC[C@@]2(C)[C@]12C[C@H](O)[C@@H]([C@@]1(C)CC[C@@H]3OC(C)(C)C(=O)CC[C@]31C)O2 [YARDENONE B] | – | > 31 |
